Results as given in patent US7662844B2, “Naphthylene derivatives as cytochrome P450 inhibitors” (OSI Pharmaceuticals, Inc., priority 2004, dated 2010).

Row | melting point [°C] | SMILES
1 | 124 to 126 | CN1CCCC1C(c1ccc2cc(OCc3ccccc3)ccc2c1)n1ccnc1 (single isomer, unassigned) [Example 3-30a, 1-[(6-Benzyloxy-naphthalen-2-yl)-(1-methyl-pyrrolidin-2-yl)-methyl]-1H-imidazole]
2 | 110 to 112 | CN1CCCC1C(c1ccc2cc(OCc3ccccc3)ccc2c1)n1ccnc1 (single isomer, unassigned) [Example 3-30b, 1-[(6-Benzyloxy-naphthalen-2-yl)-(1-methyl-pyrrolidin-2-yl)-methyl]-1H-imidazole]
